Reference: US9879243B2, “Culture medium for cell growth and transfection” (LIFE TECHNOLOGIES CORPORATION, priority 2001, dated 2018)

Legend:
[1] = system: 293 cells; test: β-galactosidase expression after transfection (pCMV-SPORT-β-gal, LIPOFECTAMINE 2000) of 293 cells in monolayer culture, 24-well plates; format: cell-based, human; conditions: Table 8, replacement compounds 25 μM in test media, 24 hrs post-transfection
Method: When cultured in suspension, cells were split to 3×10^5 viable cells per ml at each passage. On the week of transfection cells were seeded at 3×10^5 viable cells per ml. After ˜48 hrs of growth (day 2) cells were vortexed for 30 seconds and counted and appropriate volumes used for transfection as described in procedures below.
In addition, the base media comprises 2.4 g/L NaHCO3, 2.98 g/L Hepes, 4 mM L-glutamine and 3 ml/L PLURONIC F-68 (Invitrogen Corp., Carlsbad, Calif.).
The osmolarity is adjusted to from about 275-310 mOsm, preferably about 280 mOsm and the pH is adjusted to from about 7.0 to about 7.45 preferably about 7.4 respectively.
Three wells were set up for each treatment. A volume of media corresponding to 3×10^6 viable cells was centrifuged. The supernatant was removed and the cells re-suspended in 600 μl test media. Each well of a 24 well plate received 200 μl of the re-suspended cells.
To prepare the nucleic acid for the transfection experiments, 93 μl test media+3 μl DNA+24 μl LIPOFECTAMINE 2000 were combined in a microfuge tube and complexed for 30 minutes. A 40 μl aliquot of complex was added to each well. 250 μl test media was added to each well five hours after addition of complex. The final cell concentration was 1×10^6 viable cells per well; the final DNA concentration was 1 μg per 1×10^6 viable cells and the final LIPOFECTAMINE 2000 concentration was 8 μl per 1×10^6 viable cells.
24 hrs post-transfection, samples were collected for β-galactosidase quantitation. The contents of duplicate wells were pooled (i.e. ˜2×10^6 cells for the assay) for each sample and transferred to a microfuge tube. The cells were centrifuged, the supernatant was removed and the cells were re-suspended in 1 ml of D-PBS. The cells were pelleted a second time and re-suspended in 1 ml of D-PBS. The samples were then stored at −70° C. Prior to the assay for β-galactosidase, samples were freeze-thawed a total of five times.
293 cells were grown in monolayer culture in the presence of the various replacement compounds indicated and transfection experiments performed as described above. The results are shown in Table 8 and the values are β-galactosidase activity expressed as nanograms of β-galactosidase per 2×10^6 cells. A comparison was made between the transfection efficiency of DNA complexes formed in D-MEM medium and DNA complexes formed in test medium. […]
For cells transfected in 24-well plates, cells densities used were 1×10^6 viable cells per well.

[2] = system: Sp2/0 cells; test: Effect of replacement compounds on the growth of Sp2/0 cells in CD Hybridoma medium without transferrin, three passages; format: cell-based; conditions: third passage
[3] = system: CHO cells; test: Effect of replacement compounds on the growth of CHO cells in CD CHO medium without transferrin, three passages; format: cell-based, Chinese hamster; conditions: third passage
Summary of the method: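 CHO cells seeded at 1×10^5 viable cells/mL in transferrin-free CD CHO medium, 37 °C, 8% CO2, subcultured every 4 days for three passages. Compounds tested alone or complexed with ferric chloride or ferrous sulfate at 25, 50 and 100 μM; growth as mean percentage of the 5 μg/mL holo-transferrin control at the third passage, duplicate cultures.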

[4] = system: 293 cells; test: Effect of replacement compounds on the growth of 293 cells in 293 SFM without transferrin, three passages; format: cell-based, human; conditions: third passage
[5] = 25 μM, control 5 μg/mL human holo-transferrin
[6] = 25 μM, control 5 μg/mL human holo-transferrin, iron equimolar where combined
[7] = 50 μM, control 5 μg/mL human holo-transferrin
[8] = 100 μM, control 5 μg/mL human holo-transferrin

Molecule | β-galactosidase activity; D-MEM used for complexing, Test media to re-suspend cells [1] | β-galactosidase activity; Test Media used for complexing and to re-suspend cells [1] | mean percentage of control growth [2, 5] | mean percentage of control growth ([2]; 50 μM) | mean percentage of control growth ([2]; 100 μM) | mean percentage of control growth [3, 5] | mean percentage of control growth ([3]; 50 μM) | mean percentage of control growth ([3]; 100 μM) | mean percentage of control growth [4, 6] | mean percentage of control growth [4, 7] | mean percentage of control growth [4, 8] | mean percentage of control growth ([2]; 5 μM) | mean percentage of control growth ([2]; 10 μM) | mean percentage of control growth ([2]; 20 μM) | mean percentage of control growth ([3]; 5 μM) | mean percentage of control growth ([3]; 10 μM) | mean percentage of control growth ([3]; 20 μM) | mean percentage of control growth ([4]; 5 μM) | mean percentage of control growth ([4]; 10 μM) | mean percentage of control growth ([4]; 20 μM)
O=S(=O)([O-])[O-].[Fe+2] [Ferrous Sulfate, reference compound] | 258 nanograms of β-galactosidase per 2×10^6 cells | 406 nanograms of β-galactosidase per 2×10^6 cells | 91 percentage of control growth | 103 percentage of control growth | 94 percentage of control growth | 88 percentage of control growth | 79 percentage of control growth | 38 percentage of control growth | 71 percentage of control growth | 60 percentage of control growth | 41 percentage of control growth | – | – | – | – | – | – | – | – | –
Nitriloacetic Acid•Ferric Chloride | 45 nanograms of β-galactosidase per 2×10^6 cells | 33 nanograms of β-galactosidase per 2×10^6 cells | 88 percentage of control growth | 87 percentage of control growth | 70 percentage of control growth | 127 percentage of control growth | 107 percentage of control growth | 107 percentage of control growth | 100 percentage of control growth | 118 percentage of control growth | 74 percentage of control growth | – | – | – | – | – | – | – | – | –
Deferoxamine Mesylate•Ferric Chloride | 154 nanograms of β-galactosidase per 2×10^6 cells | 301 nanograms of β-galactosidase per 2×10^6 cells | – | – | – | – | – | – | – | – | – | 0 percentage of control growth | 0 percentage of control growth | 0 percentage of control growth | 50 percentage of control growth | 74 percentage of control growth | 52 percentage of control growth | 101 percentage of control growth | 120 percentage of control growth | 127 percentage of control growth
